Measured values taken from article PMC7472354, “Enhanced Antimicrobial Activity of N-Terminal Derivatives of a Novel Brevinin-1 Peptide from The Skin Secretion of Odorrana schmackeri” (Toxins, 2020).
Converted amounts (≈) assume the structure as drawn. Where a SMILES comes first, the peptide text is derived from it.

Tests used:
[1] = system: horse red blood cells; assay: Haemolysis assay and therapeutic index; conditions: 2% horse red blood cells in PBS, 2 h, 37 °C, absorbance 570 nm; best-fitted curve
Procedure: The haemolytic activity of synthetic peptides was determined using the horse red blood cells that were extracted from the de-fibroblast whole horse blood (TCS Biosciences Ltd. Buckingham, UK). […] Briefly, the red blood cells were harvested and washed using PBS until all broken red blood cells were removed. Then, a 2% cell suspension was prepared using PBS. The peptide concentrations were set as antimicrobial activity assay and mixed with the red blood cells in the microcentrifuge tubes. After a 2 h-incubation at 37 °C, the tubes were centrifuged and the suspension was transferred into a clear 96 well plate. The absorbance of released haemoglobin in the suspension was detected at 570 nm by a plate reader. Besides, the red blood cells treated with PBS and 1% Triton X-100 were used as the negative and positive controls, respectively. […] The therapeutic index (TI) was further determined as below:(1) TI=HC50/product of n MICsn,

[2] = system: Methicillin-resistant Staphylococcus aureus (MRSA, ATCC 12493); assay type: cell-based; conditions: for MBC: ATCC 12493, 18 h; for MIC: ATCC 12493, 24 h
Procedure: (§1) The minimal inhibitory concentrations (MICs) and minimum bactericidal concentrations (MBCs) were evaluated to determine the antimicrobial activity of synthetic peptides. The microorganisms employed in the study are two kinds of Gram-negative bacteria, Escherichia coli (NCTC 10418) and Pseudomonas aeruginosa (ATCC 27853), three kinds of Gram-positive bacteria, Staphylococcus aureus (NCTC 10788), Methicillin-resistant Staphylococcus aureus (MRSA, ATCC 12493) and Enterococcus faecalis (NCTC 12697) and a yeast, Candida albicans (NCPF 1467), as indicated previously. […] The sterilised broth medium was used as the positive control and the microorganism cultured in the medium only was treated as the negative control. […] The MBC results were defined as the lowest bactericidal concentrations of peptide. The antimicrobial activity of peptides was tested by monitoring the absorbance at 550 nm using an ELISA plate reader (Biolise BioTek EL808, Winooski, VT, USA).

[3] = system: Candida albicans (NCPF 1467); assay type: cell-based; conditions: for MBC: NCPF 1467, 18 h; for MIC: NCPF 1467, 24 h
Procedure: as §1

[4] = system: Enterococcus faecalis (NCTC 12697); assay type: cell-based; conditions: for MBC: NCTC 12697, 18 h; for MIC: NCTC 12697, 24 h
Procedure: as §1

[5] = system: Staphylococcus aureus (NCTC 10788); assay type: cell-based; conditions: for MBC: NCTC 10788, 18 h; for MIC: NCTC 10788, 24 h
Procedure: as §1

[6] = system: Pseudomonas aeruginosa (ATCC 27853); assay type: cell-based; conditions: for MBC: ATCC 27853, 18 h; for MIC: ATCC 27853, 24 h
Procedure: as §1

[7] = system: Escherichia coli (NCTC 10418); assay type: cell-based; conditions: for MBC: NCTC 10418, 18 h; for MIC: NCTC 10418, 24 h
Procedure: as §1

Question: For `CC[C@H](C)[C@H](NC(=O)CNC(=O)[C@@H]1CCCN1C(=O)[C@H](CC(C)C)NC(=O)[C@@H](N)Cc1ccccc1)C(=O)N[C@@H](CC(C)C)C(=O)N[C@@H](CCCCN)C(=O)N[C@H](C(=O)N[C@@H](C)C(=O)N[C@@H](C)C(=O)N[C@@H](CCCCN)C(N)=O)C(C)C` [OSb] (H-FLPGILKVAAK-NH2), which “HC50 (concentration causing 50% haemolysis of the red blood cells)” value [1] is on record?
Answer: Its value is 381.4 µM.

Question: What about the MBC [2] of the same compound?
Answer: Its MBC is > 512 µM.

Question: And the MIC [2]?
Answer: Its MIC is > 512 µM.

Question: And the MBC [3]?
Answer: The MBC was > 512 µM.

Question: What about the MIC [3] of the same compound?
Answer: The MIC was 512 µM (≈ 592 µg/mL).

Question: And the MBC [4]?
Answer: Its MBC is > 512 µM.

Question: What about the MIC [4] of the same compound?
Answer: The MIC was > 512 µM.

Question: And the MBC [5]?
Answer: The MBC was > 512 µM.

Question: What about the MIC [5] of the same compound?
Answer: Its MIC is 256 µM (≈ 296 µg/mL).

Question: And the MBC [6]?
Answer: Its MBC is > 512 µM.

Question: What about the MIC [6] of the same compound?
Answer: Its MIC is > 512 µM.

Question: And the MBC [7]?
Answer: Its MBC is > 512 µM.

Question: What about the MIC [7] of the same compound?
Answer: Its MIC is > 512 µM.

Question: Which results are given for `CC[C@H](C)[C@H](NC(=O)[C@@H](NC(=O)CNC(=O)[C@@H]1CCCN1C(=O)[C@@H](NC(=O)[C@@H](NC(=O)[C@H](CC(N)=O)NC(=O)[C@H](C)NC(=O)[C@H](C)NC(=O)[C@@H](NC(=O)[C@H](CCCCN)NC(=O)[C@H](CC(C)C)NC(=O)[C@@H](NC(=O)CNC(=O)[C@@H]1CCCN1C(=O)[C@H](CC(C)C)NC(=O)[C@@H](N)Cc1ccccc1)[C@@H](C)CC)C(C)C)C(C)C)C(C)C)C(C)C)C(=O)O` [OSa] (H-FLPGILKVAANVVPGVI-OH)?
Answer: MBC [2]: > 512 µM; MIC [2]: > 512 µM; MBC [3]: > 512 µM; MIC [3]: > 512 µM; MBC [4]: > 512 µM; MIC [4]: > 512 µM; MBC [5]: > 512 µM; MIC [5]: > 512 µM; MBC [6]: > 512 µM; MIC [6]: > 512 µM; MBC [7]: > 512 µM; MIC [7]: > 512 µM
